Measurements as given in publication PMC2712691, “Bio-Benchmarking of Electronic Nose Sensors” (PLoS ONE, 2009).

Biological target: T1, dOR35a (Drosophila melanogaster, UniProt Q9V3Q2)
T1 construct: gene Or35a; pIB-DmOr35a transiently expressed in Sf9 cells
T1 sequence (Q9V3Q2 1-409): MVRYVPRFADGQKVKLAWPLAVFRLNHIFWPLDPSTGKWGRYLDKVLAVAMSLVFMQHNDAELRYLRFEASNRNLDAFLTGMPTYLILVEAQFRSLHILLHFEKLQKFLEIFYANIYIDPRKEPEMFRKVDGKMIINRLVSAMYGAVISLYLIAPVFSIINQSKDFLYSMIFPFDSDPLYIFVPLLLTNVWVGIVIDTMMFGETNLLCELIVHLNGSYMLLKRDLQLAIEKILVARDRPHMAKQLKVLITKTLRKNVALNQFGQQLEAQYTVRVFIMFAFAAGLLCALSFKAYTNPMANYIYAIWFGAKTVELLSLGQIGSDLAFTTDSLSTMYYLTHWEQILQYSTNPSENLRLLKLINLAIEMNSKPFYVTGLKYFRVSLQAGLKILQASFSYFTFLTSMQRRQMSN
Experiment: Fluo4 calcium imaging of receptor transiently expressed in Sf9 cells, concentration-response
Format: cell-based

EC50 [nM] | Structure (SMILES)
3460 | C=CC(O)CCCCC (centres unmarked) [1-octen-3-ol]
22.7 | CCCCCCCCO [1-octanol]
